One assay concerns the target T1, EnvZ (Escherichia coli, UniProt P0AEJ4).
T1 construct: pETEcEnvZ(223-450); His6 (C); made in house; host or cells: E. coli BL21(DE3)
In words: Inhibition of EnvZ autophosphorylation. The class given is biochemical, Escherichia coli K12. As to conditions: EnvZ; 1 µM HK, 40 µM ATP, 30 min at 25 °C; read-out: IC50. The protocol: (§1) Autophosphorylation of WalK was conducted at 0.5 or 1 µM in a reaction mixture comprising 50 mM Tris-HCl (pH 8.5), 100 mM KCl, 5 mM MgCl2, 100 mM NH4Cl, 5% DMSO, and 40 µM ATP. The total reaction volume was 40 µl, and the incubation lasted for 30 min at 25 °C. To terminate the reaction, 40 µl of 2 × SDS-PAGE sample buffer was added, followed by a 10-min incubation at 37 °C. Subsequently, SDS-PAGE (10% acrylamide) was performed, and the samples were subjected to Western blotting using a PVDF membrane (Bio-Rad 1620177). The primary antibody used was anti-N3-phosphohistidine antibody (clone SC56-2) (EDM Millipore Corp), and the secondary antibody was goat anti-rabbit IgG-HRP (Abcam). A 2% bovine serum albumin (Sigma-Aldrich) solution served as the blocking reagent. Signals originating from phosphorylated HKs were detected using the HRP substrate (Immobilon Western Chemiluminescent HRP substrate, Millipore) and the Multi Imager II Multi Box (Bio Tools). Signal intensities were quantified with Image Analysis Software CS Analyzer 4 (ATTO). IC50 values (50% inhibitory concentrations) were determined using Prism 7 software (GraphPad).
(§2) In the assessment of naphthoquinone derivatives, the initial screening for inhibitory activity against WalK autophosphorylation was conducted at 50 or 100 µg ml^−1. Compounds displaying inhibitory activity were further examined to ascertain their IC50 values against WalK. For the chosen compounds, inhibition against EvgS, EnvZ, PhoQ, and CpxA HKs was also assessed. These reactions involved the use of 1 µM HK, 40 µM ATP, and a 30 min incubation at 25 °C.

A further assay concerns the target T2, EvgS (559–1197) D1009A (Escherichia coli, UniProt P30855, D1009A).
T2 construct: EvgS (559–1197) D1009A; His6 (C); made in house; host or cells: E. coli BL21(DE3)
In words: Inhibition of EvgS autophosphorylation. The class given is biochemical, Escherichia coli K12. The following applies: EvgS (559–1197) D1009A; 1 µM HK, 40 µM ATP, 30 min at 25 °C; read-out: IC50. The protocol: as §1, §2

The target of another assay is T3, PhoQ (Escherichia coli, UniProt P23837).
T3 construct: cytoplasmic regions of PhoQ (261-486) and CpxA (188-457); His6 (C); made in house; host or cells: E. coli BL21(DE3)
T3 sequence (P23837 261-486): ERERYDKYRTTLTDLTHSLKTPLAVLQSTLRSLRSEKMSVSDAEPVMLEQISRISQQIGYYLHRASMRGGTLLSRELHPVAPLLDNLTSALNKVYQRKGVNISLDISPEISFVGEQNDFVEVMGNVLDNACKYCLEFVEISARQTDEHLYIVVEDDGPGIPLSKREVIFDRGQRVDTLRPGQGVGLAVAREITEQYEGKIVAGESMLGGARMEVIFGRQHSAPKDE
In words: Inhibition of PhoQ autophosphorylation. The following applies: PhoQ; 1 µM HK, 40 µM ATP, buffer pH 7.5; read-out: IC50. The class given is biochemical, Escherichia coli K12. The protocol:
as §1, §2

The target of a further assay is T4, CpxA (Escherichia coli, UniProt P0AE82).
T4 construct: cytoplasmic regions of PhoQ (261-486) and CpxA (188-457); His6 (C); made in house; host or cells: E. coli BL21(DE3)
T4 sequence (P0AE82 188-457): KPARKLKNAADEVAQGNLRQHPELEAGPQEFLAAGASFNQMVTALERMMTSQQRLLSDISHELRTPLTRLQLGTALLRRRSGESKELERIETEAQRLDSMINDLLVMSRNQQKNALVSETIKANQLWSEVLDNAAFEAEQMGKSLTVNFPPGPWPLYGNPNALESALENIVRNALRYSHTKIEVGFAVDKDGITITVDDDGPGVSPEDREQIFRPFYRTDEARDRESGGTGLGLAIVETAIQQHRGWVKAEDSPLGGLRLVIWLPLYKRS
In words: Inhibition of CpxA autophosphorylation. Format: biochemical, Escherichia coli K12. As to conditions: CpxA; 1 µM HK, 40 µM ATP; read-out: IC50. The protocol:
as §1, with “The” for “Autophosphorylation of WalK was conducted at 0.5 or 1 µM in a reaction mixture comprising 50 mM Tris-HCl (pH 8.5), 100 mM KCl, 5 mM MgCl2, 100 mM NH4Cl, 5% DMSO, and 40 µM ATP. The”
In the assessment of naphthoquinone derivatives, the initial screening for inhibitory activity against WalK autophosphorylation was conducted at 50 or 100 µg ml^−1. Compounds displaying inhibitory activity were further examined to ascertain their IC50 values against WalK. For the chosen compounds, inhibition against EvgS, EnvZ, PhoQ, and CpxA HKs was also assessed. […]

Assay [1] has as its target T5, WalK (207-611, B. subtilis) (Bacillus subtilis, UniProt Q45614).
T5 construct: His6 (N); made in house; host or cells: E. coli BL21(DE3)
Nature of the assay: Affinity selection/mass spectrometry, competition with waldiomycin. Also on record: key to AS/MS: AS/MS + competitive inhibition of the binding of waldiomycin to WalK; − increased binding of waldiomycin to WalK. As to conditions: for AS/MS: summary class, effect on binding of waldiomycin to WalK; for increase of MS signal of the collected waldiomycin compared to only waldiomycin: compound 30 or 100 µM. The class given is binding. The protocol:
The affinity selection/mass spectrometry (AS/MS) is a method which can detect the binding of small compounds to proteins. This experiment was carried out following a previously established protocol (Fig. 5), with the exception of using Millipore 96-well filter plates (MSBVN1210) instead of MAHAN4510. In the experiment, 1 µM of WalK (207-611, B. subtilis, refer to Table S2) was combined and incubated with 5 µM of waldiomycin and competitor compounds in a reaction buffer. The buffer composition was as follows: 25 mM Tris-HCl (pH 8.0), 50 mM KCl, 50 mM NH4Cl, 5 mM MgCl2, 1 mM DTT, and 0.1% CHAPS. Following the incubation, the mixture was subjected to size-exclusion chromatography via centrifugation to eliminate free compounds. The protein that was eluted was then denatured by adding an equal volume of methanol/0.1% formic acid. The compounds that were subsequently released from the protein were detected using an LC/MS system. The concentrations of waldiomycin were calculated from the value of peak areas using calibration curve that covered the range of 1 nM to 1 µM (R^2 = 0.9991). The concentration of waldiomycin in the eluate of WalK and waldiomycin without competitor was 10.1 nM, and percentages to this value were calculated for other samples.

Assay [2] has as its system HKs (EvgS, EnvZ, PhoQ, and CpxA). Nature of the assay: Inhibition of class I HKs, summary over several HKs. The class given is biochemical, Escherichia coli K12. Also on record: key to HKs: HKs + inhibitory effect against HKs (EvgS, EnvZ, PhoQ, and CpxA). The following applies: for inhibition of EvgS, EnvZ, PhoQ, and CpxA: in words; for HKs: summary class, EvgS, EnvZ, PhoQ, and CpxA. The protocol:
as §1, §2

A further assay has as its target T6, WalK (Bacillus subtilis, UniProt Q45614).
T6 construct: His6 (N); made in house; host or cells: E. coli BL21(DE3)
In words: Inhibition of WalK autophosphorylation. Format: biochemical. Set-up: key to WalK: WalK + inhibitory effect against WalK. The following applies: for IC50: against WalK from B. subtilis, autophosphorylation, N.I. = no inhibition, read-out: IC50; for WalK: summary class; for inhibitory activity against WalK: in words. The protocol: as §1, §2

“Also recorded” adds a separate entry of the source. Like-named read-outs stand apart in the source and are kept apart here.

This is an account of results in paper PMC11284088, “Synthesis and biochemical characterization of naphthoquinone derivatives targeting bacterial histidine kinases” (The Journal of Antibiotics, 2024).

T1 sequence (P0AEJ4 223-450): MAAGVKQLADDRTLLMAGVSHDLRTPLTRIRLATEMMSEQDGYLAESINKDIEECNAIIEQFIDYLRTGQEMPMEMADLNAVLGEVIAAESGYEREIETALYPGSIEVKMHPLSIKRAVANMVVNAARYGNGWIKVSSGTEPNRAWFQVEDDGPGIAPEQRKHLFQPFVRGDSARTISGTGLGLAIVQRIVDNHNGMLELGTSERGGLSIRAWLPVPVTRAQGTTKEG
T6 sequence (Q45614 207-611): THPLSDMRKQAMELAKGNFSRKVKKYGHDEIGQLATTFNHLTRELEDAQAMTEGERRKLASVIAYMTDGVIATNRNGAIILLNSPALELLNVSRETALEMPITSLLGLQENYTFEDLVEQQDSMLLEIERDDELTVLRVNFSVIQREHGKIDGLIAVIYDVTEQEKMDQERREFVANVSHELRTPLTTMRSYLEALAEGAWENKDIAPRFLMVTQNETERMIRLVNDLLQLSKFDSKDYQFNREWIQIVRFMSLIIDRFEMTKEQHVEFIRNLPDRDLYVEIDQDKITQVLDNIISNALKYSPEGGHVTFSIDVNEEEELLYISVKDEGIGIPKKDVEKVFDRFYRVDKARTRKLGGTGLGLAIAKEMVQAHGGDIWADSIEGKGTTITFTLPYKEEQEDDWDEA
T5 sequence (Q45614 207-611): as above
T2 sequence (P30855 559-1197 D1009A): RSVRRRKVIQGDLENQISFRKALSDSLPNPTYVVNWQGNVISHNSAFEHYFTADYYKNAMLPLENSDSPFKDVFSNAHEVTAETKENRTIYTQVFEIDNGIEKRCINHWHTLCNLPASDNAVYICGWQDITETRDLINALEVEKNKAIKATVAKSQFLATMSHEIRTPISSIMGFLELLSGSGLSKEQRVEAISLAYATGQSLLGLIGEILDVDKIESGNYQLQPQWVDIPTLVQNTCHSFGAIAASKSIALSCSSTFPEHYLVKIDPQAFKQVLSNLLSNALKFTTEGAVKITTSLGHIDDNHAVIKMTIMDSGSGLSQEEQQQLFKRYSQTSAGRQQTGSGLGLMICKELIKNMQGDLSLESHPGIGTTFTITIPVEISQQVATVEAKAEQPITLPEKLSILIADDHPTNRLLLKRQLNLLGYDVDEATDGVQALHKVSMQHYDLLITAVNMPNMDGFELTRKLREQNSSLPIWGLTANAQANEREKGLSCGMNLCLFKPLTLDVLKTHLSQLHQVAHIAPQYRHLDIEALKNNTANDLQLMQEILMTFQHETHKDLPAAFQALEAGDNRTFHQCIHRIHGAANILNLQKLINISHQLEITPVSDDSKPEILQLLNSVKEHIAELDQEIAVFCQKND

A word on the IC50: it is the concentration that gives 50% inhibition. Consider `Cc1noc2c1C(=O)c1c(O)ccc(O)c1C2=O` [3b, 5,8-dihydroxy-3-methylnaphtho[2,3-d]isoxazole-4,9-dione], for which the IC50 at EnvZ came out at 77.3 µM; on EvgS (559–1197) D1009A it was 109 µM; at PhoQ it was 96.3 µM; on CpxA, 104 µM; at WalK it was 186 µM. Also, the “effect on the signal of waldiomycin” value in assay [1] (compound 30 and 100 µM, in words) is listed as “reduced the signal of waldiomycin in a dose-dependent manner”. In addition, the “signal of waldiomycin compared to only waldiomycin with WalK” value in assay [1] (compound at 100 µM, waldiomycin 5 µM, WalK 1 µM) is “about 10%”. The “binding to WalK competitive with that of waldiomycin” value (“binding to WalK competitive” below) in assay [1] (in words) is given as “competitive; also recorded: competitively interacted with waldiomycin”. In addition, in assay [1], the AS/MS result is reported as “+”. In addition, the “inhibition of EvgS, EnvZ, PhoQ, and CpxA” value in assay [2] was “inhibited all four of these HKs”. Moreover, in assay [2], the HKs result is recorded as “+”. The WalK result on WalK is “+”.
As to `O=C1C(Cl)=C(Nc2ccc(Cl)c(O)c2)C(=O)c2c(O)ccc(O)c21` [2h, 2-chloro-3-((4-chloro-3-hydroxyphenyl)amino)-5,8-dihydroxynaphthalene-1,4-dione], the IC50 at EnvZ amounted to 47.2 µM; on EvgS (559–1197) D1009A it was 25.8 µM; on PhoQ, 42.3 µM; at CpxA, 19.5 µM; at WalK (listed as C00015) it was 12.6 µM. In assay [1] (waldiomycin 5 µM, WalK 1 µM), the “increase of MS signal of the collected waldiomycin compared to only waldiomycin” value is given as “about twofold”. The “binding to WalK competitive” value in assay [1] (in words) was “not competitive; also recorded: enhanced the binding of waldiomycin to WalK”. In assay [1], the AS/MS result is “−”. For the same compound, in assay [2], the “inhibition of EvgS, EnvZ, PhoQ, and CpxA” value is “inhibited all four of these HKs”. Moreover, the HKs entry in assay [2] is “+”. The “inhibitory activity against WalK” value at WalK is on record as “comparable to waldiomycin”. Further, the WalK result at WalK is listed as “+”.
In the case of `CC(C)(C)OC(=O)Nc1cccc(NC2=C(Cl)C(=O)c3c(O)ccc(O)c3C2=O)c1` [2l, tert-butyl (3-((3-chloro-5,8-dihydroxy-1,4-dioxo-1,4-dihydronaphthalen-2-yl)amino)phenyl)carbamate], the IC50 was 26.8 µM on EnvZ; 50 µM on EvgS (559–1197) D1009A; 133 µM at PhoQ; 32.7 µM at CpxA; 13 µM on WalK. Also, in assay [1] (waldiomycin 5 µM, WalK 1 µM), the “increase of MS signal of the collected waldiomycin compared to only waldiomycin” value was “about twofold”. The “binding to WalK competitive” value in assay [1] (in words) was “not competitive; also recorded: enhanced the binding of waldiomycin to WalK”. In assay [1], the AS/MS result is on record as “−”. Further, in assay [2], the “inhibition of EvgS, EnvZ, PhoQ, and CpxA” value was “inhibited all four of these HKs”. For the same compound, the HKs entry in assay [2] was “+”. For the same compound, on WalK, the “inhibitory activity against WalK” value is given as “comparable to waldiomycin”. Besides, the WalK result at WalK is on record as “+”.
